According to paper PMC5923171, “Novel Zinc-Attenuating Compounds as Potent Broad-Spectrum Antifungal Agents with In Vitro and In Vivo Efficacy” (Antimicrobial Agents and Chemotherapy, 2018):

Tests used:
[1] = cited from earlier work
[2] = system: HepG2 cells; assay: Human hepatocyte (HepG2) proliferation assay; assay type: cell-based; conditions: for EC50: 24 h exposure, XTT
Protocol: In each well of a 96-well tissue culture plate (GR-655180; Grenier), 10,000 human hepatocytes (HepG2) (85011430; […] Sigma]) supplemented with 2 mM L-[…]-020-1B; Biological Industries), 1% nonessential amino acids (XC-[…]/100; Biosera), and 10% fetal bovine serum (BI-04-007-1A; Biological Industries), and plates were incubated overnight at 37°C and 5% CO2. […] The plate was incubated for a further 24 h or 72 h at 37°C and 5% CO2. The medium was then replaced with 100 μl of freshly prepared 2,3-bis-(2-methoxy-4-nitro-5-sulfophenyl)-2H-tetrazolium-5-carboxanilide salt (XTT) sodium salt solution (0.5 mg/ml of XTT; […]; Sigma) in RPMI 1640 ([…]; Sigma-Aldrich) with 3.83 μg/ml of phenazine methosulfate ([…]; Sigma-Aldrich) and incubated 2 to 3 h at 37°C and 5% CO2 ([43]). The color reaction was measured on Victor X5 plate reader (Perkin-Elmer) at OD450, and the half-maximal effective concentration (EC50) was calculated. Tamoxifen (85256; Sigma) was used as a positive-control compound.

[3] = system: A. fumigatus AF54 (ΔzrfC); assay: Growth capacity in sRPMI zinc-limiting medium, 24-well plates; assay type: cell-based, Aspergillus fumigatus; conditions: average, either with or without simultaneous exposure to ZAC307 or ZAC989
Protocol: (§1) Growth capacity experiments with A. fumigatus strains AF14, AF54, AF48, AF732, and AF731 were performed in 24-well flat-bottomed tissue culture plates (35-3047; Falcon). A stock solution of 10 mM TPEN (P4413; Sigma) was prepared in pure ethanol. For these experiments, 5 mM stock solutions of ZAC307 and ZAC989 were prepared by dissolving each compound in 80% (vol/vol) ethanol. A 0.5 M stock solution of Na2EDTA·2H2O (1.08421.1000; Merck) was prepared in sterile water. A 1× stock solution (10.4 g/liter) of RPMI 1640 medium (R8755; Sigma) supplemented with 10 μM FeSO4·7H2O, 1 μM CuSO4·5H2O, and 1 μM MnCl2·H2O (sRPMI) was prepared under aseptic conditions and used as standard culture medium. In each well, 1 ml of culture medium containing sRPMI medium, Tween 20, ethanol (or the specified compound dissolved in 80% ethanol), and 10^5 conidia was dispensed to achieve final concentrations of 0.7×, 0.05% (vol/vol), 1.2% (vol/vol), and 10^5 conidia/ml, respectively. Plates were incubated for 44 h at 37°C in a humid atmosphere. To quantitate mycelial growth, each plate was scanned in an Agfa SnapScan 1236s scanner, and the intensity of the wells was quantified using the open-source image processing program Image J2. The data were represented and analyzed with Prism software 7.0.

[4] = system: A. fumigatus AF48 (ΔzrfA ΔzrfB); assay: as above; assay type: cell-based, Aspergillus fumigatus; conditions: 75 μM compound, 44 h, 37°C
Protocol: as §1

[5] = system: Candida albicans; assay: Abrogation of the antifungal effect by exogenous divalent metals; assay type: cell-based; conditions: for fungal growth rate compared to control cells: in the presence of 100 μM Fe^2+
Protocol: Antifungal susceptibility testing was carried out as described previously ([38], [39]), with a few modifications. Briefly, for each yeast or mold growth inhibition assay, frozen stocks of yeast cells or spores were diluted to a final concentration of 0.5 × 10^5 to 2.5 × 10^5 CFU/ml in sterile water. ZAC989, ZAC307, and ZAC623 were dissolved in DMSO to 10 mM stocks from which half-log serial dilutions were prepared. Growth assays were subsequently performed by pipetting 3 μl of compound dissolved in DMSO (giving a final concentration of 1.5% DMSO), 100 μl of cell-spore suspension, and 97 μl of 2× RPMI medium (20.8 g/liter of RPMI 1640 medium, 69.06 g/liter of morpholinepropanesulfonic acid [MOPS], 36 g/liter of glucose) into a microtiter plate that was incubated for 24 h (yeasts) or 48 to 72 h (molds) at 34°C. Fungal growth was determined spectrophotometrically by optical density reading of each well at a wavelength of 492 nm on a Victor X5 (Perkin-Elmer) plate reader. […] Standard errors between repeated experiments were generally below 5%. The growth effect of exogenous addition of various divalent metals was evaluated by performing the antifungal […], MgCl2, and CaCl2.

[6] = Potentiometric titration with CaCl2; assay type: binding; conditions: DMSO-water (70:30, vol/vol)
Protocol: The Zn^2+-binding properties of ZAC307 and ZAC989 were further evaluated using a potentiometric assay, where pH is measured as a function of base (NaOH) added to the compound in either the absence or presence of metal. […] To determine the deprotonation constant, a solution of 1 mM ZAC307 or ZAC989 was titrated with 0.3 M NaOH at constant ionic strength (Fig. 2A and B). In a second run, the same titration was performed in the presence of 0.5 eq of Zn^2+ for ZAC307 and ZAC989. A shift in the pH curve in the presence of the metal (ZAC307, 0.5 eq of Zn^2+ [Fig. 2A]) compared to the absence of the metal (ZAC307 [Fig. 2A]) indicates binding of Zn^2+ to the compound. The measured pH data were analyzed with the Hyperquad program suite, taking into account all relevant equilibrium constants, including also the constants for metal hydroxylation. The analysis provides the pKa values and metal complex stability constants, as well as ligand-metal complex speciation calculation, indicating how many ZAC molecules are involved in coordinating the Zn^2+ ion at different pH values. […] ZAC989 bound copper with the formation constants log β1, log β2, and log β3 of 7.83, 13.37, and 20.62, respectively. The most dominant ZAC989-copper stoichiometry was a 3:1 stoichiometry (Fig. 2E).
Potentiometric measurements were carried out in DMSO-water (70:30, vol/vol) at 25°C as described previously ([22]). […]

[7] = Solubility in water at millimolar concentrations; assay type: physicochemical
[8] = molecular target: fungal plasma membrane H^+-ATPase (Saccharomyces cerevisiae, UniProt P05030); assay: H+-ATPase-inhibitory activity; assay type: biochemical
fungal plasma membrane H^+-ATPase, sequence (P05030 whole entry): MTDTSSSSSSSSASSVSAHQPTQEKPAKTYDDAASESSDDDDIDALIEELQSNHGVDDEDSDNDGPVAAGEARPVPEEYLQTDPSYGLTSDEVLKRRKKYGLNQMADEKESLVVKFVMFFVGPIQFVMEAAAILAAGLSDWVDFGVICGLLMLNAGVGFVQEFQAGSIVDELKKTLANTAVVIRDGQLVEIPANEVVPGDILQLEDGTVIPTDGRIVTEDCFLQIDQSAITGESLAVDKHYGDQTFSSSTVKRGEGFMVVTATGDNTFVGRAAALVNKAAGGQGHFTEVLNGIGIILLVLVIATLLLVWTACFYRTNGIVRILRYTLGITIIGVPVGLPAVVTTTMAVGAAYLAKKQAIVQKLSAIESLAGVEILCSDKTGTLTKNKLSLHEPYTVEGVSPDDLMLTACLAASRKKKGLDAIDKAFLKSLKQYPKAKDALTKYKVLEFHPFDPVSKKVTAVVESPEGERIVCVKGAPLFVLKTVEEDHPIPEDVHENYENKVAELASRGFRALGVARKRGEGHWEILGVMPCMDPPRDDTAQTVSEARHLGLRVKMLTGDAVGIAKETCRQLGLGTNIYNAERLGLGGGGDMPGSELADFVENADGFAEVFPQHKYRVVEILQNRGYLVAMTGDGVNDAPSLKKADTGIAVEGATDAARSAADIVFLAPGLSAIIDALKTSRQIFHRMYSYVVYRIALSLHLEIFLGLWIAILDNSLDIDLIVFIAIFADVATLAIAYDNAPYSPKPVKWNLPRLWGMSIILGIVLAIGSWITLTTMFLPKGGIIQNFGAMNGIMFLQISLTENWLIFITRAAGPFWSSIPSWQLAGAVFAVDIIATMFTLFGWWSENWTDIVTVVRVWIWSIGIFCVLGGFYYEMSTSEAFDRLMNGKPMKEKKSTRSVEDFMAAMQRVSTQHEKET

For O=C(O)CN(CCN(CC(=O)O)CC(=O)O)CC(=O)O [EDTA], the “zinc chelation (in words)” value [1] is given as “very potent zinc chelators”, the “effect on the proliferation of HepG2 cells (in words)” value [2] is given as “did not affect the proliferation of HepG2 cells” and the EC50 [2] is given as over 29 µg/mL.

With Cc1cc(O)n(-c2cc(N3CC[C@H](Oc4cnccc4C#N)C3)ncn2)n1 [ZAC989, 3-[(3S)-1-[6-(5-hydroxy-3-methyl-pyrazol-1-yl)pyrimidin-4-yl]pyrrolidin-3-yl]oxy-pyridine-4-carbonitrile] the “reduction of growth capacity at 2 μM zinc compared to 50 μM zinc” value [3] was 24.6 fold, the “reduction of growth capacity, 2 μM zinc plus compound compared to 50 μM zinc” value [4] was 4.5 fold and the “effect of exogenous addition of zinc or copper on the antifungal effects” value [5] was “reversed”. The “fungal growth rate compared to control cells” value [5] was “approximately 50%”, the “Ca^2+ binding” value [6] was “negligible” and the EC50 [2] was over 36 µg/mL. For the same molecule, the solubility in water [7] was “poor solubility in water” and the “H^+-ATPase-inhibitory activity” value [8] was “lacked H^+-ATPase-inhibitory activity”.

For c1ccc(CN(CCN(Cc2ccccn2)Cc2ccccn2)Cc2ccccn2)nc1 [TPEN, N,N,N’,N’-tetrakis(2-pyridylmethyl)-ethylenediamine], the “zinc chelation (in words)” value [1] is given as “very potent zinc chelators”.

With CN(C)c1cc(-n2nc(-c3ccccc3)cc2O)ncn1 [ZAC307, 2-[6-(dimethylamino)pyrimidin-4-yl]-5-phenyl-pyrazol-3-ol] the “reduction of growth capacity at 2 μM zinc compared to 50 μM zinc” value [3] was 24.6 fold, the “reduction of growth capacity, 2 μM zinc plus compound compared to 50 μM zinc” value [4] was 3.9 fold and the “effect of exogenous addition of zinc or copper on the antifungal effects” value [5] was “reversed”. The “fungal growth rate compared to control cells” value [5] was “approximately 50%”, the “Ca^2+ binding” value [6] was “negligible” and the solubility in water [7] was “poor solubility in water”. For the same molecule, the “H^+-ATPase-inhibitory activity” value [8] was “lacked H^+-ATPase-inhibitory activity”.
